This is an account of results in US7202280B2, “Methods for the treatment and prevention of pancreatitis and for induction of liver regeneration” (priority 2002, dated 2007).

One experiment relates to SSAT transgenic rats. Briefly: Stability of the analogues in the liver of SSAT transgenic rats without or with MDL72527 (hepatic polyamine pools). To be noted: MDL72527 50 mg/kg i.p. twice. It counts as in vivo, rat. The procedure: FIGS. 8A-8D. Hepatic polyamine pools in SSAT transgenic rats treated with methylated polyamine analogues without or with MDL72527. The rats were injected twice with MDL72527 (50 mg/kg i.p.) at 16-h interval. The polyamine analogues (25 mg/kg i.p.) were injected 2 and 8 h later. The animals were sacrificed 24 h after the last MDL72527 injection. There were three to four animals in each group. Put, putrescine; […] Spd, spermidine; Me-Spd, α-methylspermidine; […] The production of transgenic Wistar rats (UKUR30) and mice (UKU181) harboring metallothionein-SSAT fusion gene (Suppola, […]., Porter, C. W., and Jänne, J. (1999) Biochem. […] (2000) Proc. Natl. Acad. Sci. U.S.A. 97, 8290-8295; Lukkarinen, […]., and Alhonen, L. (1997) Stroke 28, 639-645). Partial hepatectomy was carried out according to the original method of Higgins and Anderson (Higgins, G. H., and Anderson, R. M. (1931) Arch. Pathol. 12, 186-202). Treatments before partial hepatectomy and the determination of DNA synthesis were carried out as in ([…]., Suppola, […]., and […]. Biol. Chem. 277, 39867-39872). Transgenic 10 weeks old male rats were injected twice with MDL72527 (50 mg/kg i.p.) at 16-h interval to inactivate PAO according to (Bolkenius, F. N., Bey, P., and Seiler, N. (1985) Biochim. Biophys. […] An aliquot of the homogenates was used for the polyamine assays. The homogenates were centrifuged (at 13 000×g, for 30 min, at 4° C.) and the supernatants were used for the enzyme activity assays. The Institutional Animal Care and Use Committee of the University of Kuopio and by the Provincial Government approved animal experiments. […] Merck (Darmstadt, Germany).

The test system of another experiment is PAO. Briefly: Hepatic PAO activity in SSAT transgenic rats after polyamine analogues without or with MDL72527. It counts as in vivo, rat. The settings on record: MDL72527 50 mg/kg i.p. twice, alone or in combination with the analogues. The procedure:
FIGS. 9A–9B. Effect of polyamine analogues without or with MDL72527 on hepatic SSAT (FIG. 9A) and PAO (FIG. 9B) activities in SSAT transgenic rats. The rats were treated with the drugs as described in the legend for FIGS. 8A–8D. There were three to four animals in each group.
The production of transgenic Wistar rats (UKUR30) and mice (UKU181) harboring metallothionein-SSAT fusion gene (Suppola, S., Pietilä, M., Parkkinen, J. J., Korhonen, V. P., Alhonen, L., Halmekytö, M., Porter, C. W., and Jänne, J. (1999) Biochem. J. 338, 311–316) has been described earlier (Alhonen, L., Parkkinen, J. J., Keinänen, T., Sinervirta, R., Herzig, K. H., and Jänne, J. (2000) Proc. Natl. Acad. Sci. U.S.A. 97, 8290–8295; Lukkarinen, J., Gröhn, O., Sinervirta, R., Järvinen, A., Kauppinen, R. A., Jänne, J., and Alhonen, L. (1997) Stroke 28, 639–645). Partial hepatectomy was carried out according to the original method of Higgins and Anderson (Higgins, G. H., and Anderson, R. M. (1931) Arch. Pathol. 12, 186–202). […]
PAO activity was measured to verify the effectiveness of MDL72527 treatment and to determine whether the analogues have any effect on its activity. […]

Each structure is given as a SMILES string.

For `C=C=CCNCCCCNCC=C=C` [MDL72527, reference compound], the “hepatic putrescine and N^1-acetylspermidine pools” value in the experiment with SSAT transgenic rats is “greatly reduced putrescine content and increased the pool of N^1-acetylspermidine”. The “hepatic PAO activity” value in the experiment with PAO was “virtually completely inhibited PAO activity”.
